The source of these data is article PMC6429356, “Development of Anthraquinone Analogues as Phosphoglycerate Mutase 1 Inhibitors” (Molecules, 2019).

What is called IC50 is the point on the concentration scale where inhibition reaches its midpoint. A high value points to a need for much substance. By inhibition is commonly meant the change of the read-out against control, counted positive when it falls.

One assay concerns H1299 cells. The assay can be described thus: Cell viability assay (MTT, 72 h), H1299. The class given is cell-based. The settings on record: Homo sapiens, NCI-H1299, proliferation, mean ± s.d. (n = 3). On the procedure: The H1299 cell line was obtained from Guangzhou Jenniobio Biotechnology Co., Ltd. (Guangzhou, China), PC9 and A549 cells were gifted from Deng Jiong’s lab in the School of Medicine, Shanghai Jiao Tong University, Shanghai, China). H1299, PC9 cells were cultured in RPMI-1640 medium and A549 cells were cultured in F-12K medium containing 10% fetal bovine serum (FBS), 100 units/mL of Penicillin and 100 μg/mL Streptomycin. In cell viability assays, 2000 H1299 cells, A549 cells or 1000 PC9 cells per well were seeded in 96-well plate. After attachment for 24 h, the cells were treated with indicated inhibitor for 72 h. After incubation with 0.5 mg/mL methylthiazolyldiphenyl-tetrazolium bromide (MTT) for 4 h, cell viability was measured as the OD at 570 nm.

For a further assay, the target named is T1, PGAM1 (Homo sapiens, UniProt P18669).
T1 construct: His6 (C); made in house
The assay can be described thus: PGAM1 enzymatic assay (enolase-pyruvate kinase-LDH coupled, OD 340 nm). The settings on record: for IC50: optimized enzymatic assay, mean ± s.d. (n = 3); for inhibition at 10 µM: 10 μM compound, mean ± s.d. (n = 2). The class given is biochemical. On the procedure: (§1) Firstly, 1 μL inhibitor in dimethyl sulfoxide (DMSO) incubated with 49 μL 4.6 nM recombinant PGAM1, then 50 μL enzyme mix containing 3 units/mL enolase (Sigma-Aldrich, Saint Louis, MO, USA), 3 units/mL recombinant pyruvate kinase M2 (Sigma-Aldrich), 0.6 units/mL recombinant lactatdehydrogenase (LDH, Sigma-Aldrich), 100 mM Tris-HCl, 100 mM KCl, 5 mM MgCl2, 1 mM adenosine diphosphate (ADP), 0.2 mM the reduced form of nicotinamide adenine dinucleotide (NADH) and 4 mM 3PG was added. PGAM1 activity was measured as the decrease in OD at 340 nm. In addition, we performed a counter screening in which 4mM 2PG was added to 50 μL reaction mix containing the indicated inhibitor, 3 units/mL enolase (Sigma-Aldrich), 3 units/mL recombinant pyruvate kinase M2 (Sigma-Aldrich), 0.6 units/mL recombinant LDH (Sigma-Aldrich), 100 mM Tris-HCl, 100 mM KCl, 5 mM MgCl2, 1 mM ADP and 0.2 mM NADH. The other three enzyme activity was measured as the decrease in OD at 340 nm.

The test system of assay [1] is enolase-pyruvate kinase-LDH. The assay is described as follows: Counter screening: control linked enzyme assay with 2PG. The class given is biochemical. The settings on record: 0.5 μM compound, pyruvate kinase M2, LDH without PGAM1, mean ± s.d. (n = 2). On the procedure:
as §1

T1 sequence (P18669 whole entry): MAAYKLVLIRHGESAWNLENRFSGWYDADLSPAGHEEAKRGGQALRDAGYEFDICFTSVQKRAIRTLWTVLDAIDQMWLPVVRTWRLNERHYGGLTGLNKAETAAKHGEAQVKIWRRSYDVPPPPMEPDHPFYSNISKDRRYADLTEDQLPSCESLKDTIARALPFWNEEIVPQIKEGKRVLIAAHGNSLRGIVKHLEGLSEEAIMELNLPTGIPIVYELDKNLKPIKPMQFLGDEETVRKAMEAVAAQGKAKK

`N#Cc1ccc(S(=O)(=O)Nc2cc3c(c(O)c2O)C(=O)c2ccccc2C3=O)cc1` [Compound 9e, 4-Cyano-N-(3,4-dihydroxy-9,10-dioxo-9,10-dihydroanthracen-2-yl) benzenesulfonamide]: the concentration for half-maximal inhibition (IC50) in the assay with H1299 cells came to 26.3 ± 4.5 µM; against PGAM1, 610 ± 120 nM. In addition, in assay [1], the “Inhibition in the Control Linked Enzyme Assay (0.5 μM)” value stood at 6.7 ± 0.2%.

In the case of `O=C(O)COc1c(NS(=O)(=O)c2ccc(Cl)cc2)cc2c(c1O)C(=O)c1ccccc1C2=O` [Compound 14b, 2-((3-((4-chlorophenyl)sulfonamido)-1-hydroxy-9,10-dioxo-9,10-dihydroanthracen-2-yl)oxy) acetic acid], the IC50 against PGAM1 is above 10000 nM.

Turning to `CS(=O)(=O)Oc1c(NS(=O)(=O)c2ccc(Cl)cc2)cc2c(c1O)C(=O)c1ccccc1C2=O` [Compound 14g, 3-((4-chlorophenyl)sulfonamido)-1-hydroxy-9,10-dioxo-9,10-dihydroanthracen-2-yl methanesulfonate], the 50% inhibitory concentration (IC50) was 28.5 ± 0.6 µM with H1299 cells and above 10000 nM against PGAM1.

Turning to `NNC(=O)COc1c(NS(=O)(=O)c2ccc(Cl)cc2)cc2c(c1O)C(=O)c1ccccc1C2=O` [Compound 14f, 4-chloro-N-(3-(2-hydrazinyl-2-oxoethoxy)-4-hydroxy-9,10-dioxo-9,10-dihydroanthracen-2-yl) benzenesulfonamide], the results for the IC50 in the assay with H1299 cells and on PGAM1 were above 100 µM and 2000 ± 200 nM, respectively.

For the compound `COc1c(NS(=O)(=O)c2ccc(Cl)cc2)cc2c(c1O)C(=O)c1ccccc1C2=O` [Compound 14c, 4-chloro-N-(4-hydroxy-3-methoxy-9,10-dioxo-9,10-dihydroanthracen-2-yl) benzene-sulfonamide], the values for the IC50 with H1299 cells and against PGAM1 were 26.9 ± 2.1 µM and 2920 ± 110 nM, respectively.

`CN(C)C(=O)COc1ccc2c(c1O)C(=O)c1ccccc1C2=O` [Compound 6e, 2-((1-hydroxy-9,10-dioxo-9,10-dihydroanthracen-2-yl)oxy)-N,N-dimethylacetamide]: at PGAM1, the inhibition at 10 µM came to 20.2 ± 2.2%.

`CCOC(=O)COc1c(NS(=O)(=O)c2ccc(Cl)cc2)cc2c(c1O)C(=O)c1ccccc1C2=O` [Compound 14a, ethyl 2-((3-((4-chlorophenyl)sulfonamido)-1-hydroxy-9,10-dioxo-9,10-dihydroanthracen-2-yl)oxy) acetate] displayed an IC50 against PGAM1 above 10000 nM.

As to `CCOC(=O)COc1ccc2c(c1O)C(=O)c1ccccc1C2=O` [Compound 6c], on PGAM1, the inhibition at 10 µM worked out at 0%.

Take `CCOC(=O)COc1cc(NS(=O)(=O)c2ccc(Cl)cc2)c2c(c1O)C(=O)c1ccccc1C2=O` [Compound 12, ethyl 2-((4-((4-chlorophenyl)sulfonamido)-1-hydroxy-9,10-dioxo-9,10-dihydroanthracen-2-yl)oxy) acetate]: the inhibition at 10 µM against PGAM1 came to 10%.

On PGAM1, `O=C1c2ccccc2C(=O)c2c1cc1c(c2O)OCCN1S(=O)(=O)c1ccc(Cl)cc1` [Compound 14e, 4-((4-chlorophenyl)sulfonyl)-12-hydroxy-3,4-dihydro-2H-anthra[2,3-b][1,4]-oxazine-6,11-dione] registered a half-inhibitory concentration (IC50) above 10000 nM.

With `O=C(O)COc1ccc2c(c1OCC(=O)O)C(=O)c1ccccc1C2=O` [Compound 6b, 2,2′-((9,10-dioxo-9,10-dihydroanthracene-1,2-diyl)bis(oxy)) diacetic acid], the inhibition at 10 µM against PGAM1 was determined as 14.3 ± 5.9%.

For the compound `CCOC(=O)COc1ccc2c(c1OCC(=O)OCC)C(=O)c1ccccc1C2=O` [Compound 6a, diethyl 2,2′-((9,10-dioxo-9,10-dihydroanthracene-1,2-diyl)bis(oxy)) diacetate], at PGAM1, the inhibition at 10 µM was -0.6 ± 1%.

Turning to `O=C(O)COc1cc(NS(=O)(=O)c2ccc(Cl)cc2)c2c(c1O)C(=O)c1ccccc1C2=O` [Compound 13, 2-((4-((4-chlorophenyl)sulfonamido)-1-hydroxy-9,10-dioxo-9,10-dihydroanthracen-2-yl)oxy) acetic acid], at PGAM1, the inhibition at 10 µM came to 34%.

As for `O=C(O)COc1ccc2c(c1O)C(=O)c1ccccc1C2=O` [Compound 6d], the inhibition at 10 µM against PGAM1 stood at 5.5 ± 0.03%.
